Earlier results, collected in publication PMC4761099 (British Journal of Pharmacology, 2016).

Test system: Ob/ob mice
Conditions: leptin mutant mice, acute setting; ref Kerr et al., 2011

GIP(8-42): literature GIP fragment (Kerr et al., 2011) (SDYSIAMDKIHQQDFVNWLLAQKGKKNDWKHNITQ; Gastric inhibitory polypeptide; UniProt P09681 59-93, looked up, fragment)
antagonism of GIP(1–42) in vivo, in words: decreased insulin secretion and increased plasma glucose
